# Data reported in patent US5631247A, “Compounds and compositions with nitrogen-containing non-basic side chains” (Eli Lilly and Company, priority 1996, dated 1997).
# Values joined by “and” are separate entries in the source; they are usually repeats but may differ in a detail not shown here. Equal entries are not always repeated.
# Legend:
# eosinophil peroxidase = assay: Uterine eosinophil peroxidase (EPO) assay in ovariectomized rats (four day dosing); type: in vivo, female Sprague Dawley rats; set-up: Uterine EPO (Vmax): unit not given here; details: oral, OVX rats; for Uterine EPO (Vmax): daily for 4 days
# Experimental: (§1) In the examples illustrating the methods, a post-menopausal model was used in which effects of different treatments upon various biological parameters were determined, including serum cholesterol concentration, uterine weight, eosinophil peroxidase activity, MCF-7 cell proliferation, and bone density.
# (§2) Animals were dosed daily for 4 days. […] A blood sample was collected by cardiac puncture.
# (§3) The data presented in Table 1 reflect the response of 5 to 6 rats per treatment.
# uterus = assay: Wet uterine weight in ovariectomized rats (four day dosing); type: in vivo, female Sprague Dawley rats
# Experimental: as §1, §2
# (§4) Data presented in Table 1 below show comparative results among control ovariectomized rats, rats treated with EE2, and rats treated with certain compounds of the present invention. […] This uterine response to estrogen is well recognized in the art.
# as §3
# [1] = system: MCF-7 breast adenocarcinoma cells; assay: MCF-7 proliferation assay (tritiated thymidine); type: cell-based; details: Homo sapiens, MCF7, 48 hours with drug, read-out: ED50 (the source's name)
# Experimental: MCF-7 breast adenocarcinoma cells (ATCC HTB 22) were maintained in MEM (minimal essential medium, phenol red-free, Sigma, St. Louis, Mo.) supplemented with 10% fetal bovine serum (FBS) (V/V), L-glutamine (2 mM), sodium pyruvate (1 mM), HEPES {(N-[2-hydroxyethyl]piperazine-N'-[2-ethanesulfonic acid]10 mM}, non-essential amino acids and bovine insulin (1 μg/ml) (maintenance medium). Ten days prior to assay, MCF-7 cells were switched to maintenance medium supplemented with 10% dextrancoated charcoal stripped fetal bovine serum (DCC-FBS) assay medium) in place of 10% FBS to deplete internal stores of steroids. MCF-7 cells were removed from maintenance flasks using cell dissociation medium (Ca++/Mg++ free HBSS (phenol red-free) supplemented with 10 mM HEPES and 2 mM EDTA). Cells were washed twice with assay medium and adjusted to 80,000 cells/mi. Approximately […] (8,000 cells) were added to flat-bottom microculture wells (Costar 3596) and incubated at 37° C. in a 5% CO2 humidified incubator for 48 hours to allow for cell adherence and equilibration after transfer. Serial dilutions of drugs or DMSO as a diluent control were prepared in assay medium and […] to triplicate microcultures followed by 50 ml assay medium for a final volume of […]. After an additional 48 hours at 37° C. in a 5% CO2 humidified incubator, microcultures were pulsed with tritiated thymidine (1 uCi/well) for 4 hours. Cultures were terminated by freezing at -70° C. for 24 hours followed by thawing and harvesting of microcultures. Samples were counted by liquid scintillation. Results in Table 3 below show the ED50 for certain compounds of the present invention.
# serum cholesterol = assay: Serum cholesterol in ovariectomized rats (post-menopausal rat model, four day dosing); type: in vivo, female Sprague Dawley rats; details: oral; for Serum Cholesterol (% dec. OVX): daily for 4 days, decrease vs OVX control
# Experimental: as §1, §2
# Blood samples were allowed to clot at room temperature for 2 hours, and serum was obtained following centrifugation for 10 minutes at 3000 rpm. Serum cholesterol was determined using a Boshringer Mannheim Diagnostics high performance cholesterol assay. Briefly the cholesterol was oxidized to cholest-4-en-3-one and hydrogen peroxide. The hydrogen peroxide was then reacted with phenol and 4-aminophenazone in the presence of peroxidase to produce a p-quinone imine dye, which was read spectrophotemetrically at 500 nm. Cholesterol concentration was then calculated against a standard curve. The entire assay was automated using a Biomek Automated Workstation.
# as §4, §3
# tibia = assay: Bone density assay (35 day dosing, tibia, single photon absorptiometry); type: in vivo, female Sprague Dawley rats; details: OVX rats, oral in 20% hydroxypropyl β-cyclodextrin, daily for 35 days
# Experimental: Following the General Preparation procedure described above, the rats were treated daily for 35 days (6 rats per treatment group) and sacrificed by decapitation on the 36th day. The 35 day time period was sufficient to allow maximal effect on bone density, measured as described herein. At the time of sacrifice, the uteri were removed, dissected free of extraneous tissue, and the fluid contents were expelled before determination of wet weight in order to confirm estrogen deficiency associated with complete ovariectomy. […] The uteri were then placed in 10% neutral buffered formalin to allow for subsequent histological analysis. The right tibias were excised and scanned at the distal metaphysis 1 mm from the patellar groove with single photon absorptiometry. Results of the densitometer measurements represent a calculation of bone density as a function of the bone mineral content and bone width. In accordance with the procedures outlined above, compounds of the present invention and EE2 in 20% hydroxypropyl β-cyclodextrin were orally administered to test animals.
# [2] = Rattus norvegicus, po, 96 h, daily for 4 days, increase vs OVX control, read-out: Uterine Weight (% inc. OVX)
Structure (SMILES),IC50 [1] [nM],Uterine EPO (Vmax) (eosinophil peroxidase; 0.1 mg/kg),Uterine EPO (Vmax) (eosinophil peroxidase; 1 mg/kg),Uterine EPO (Vmax) (eosinophil peroxidase; 10 mg/kg),change in vivo at 0.1 mg/kg (uterus; [2]) [%],change in vivo at 1 mg/kg (uterus; [2]) [%],change in vivo at 10 mg/kg (uterus; [2]) [%],"eosinophil infiltration into the uterus (in words) (eosinophil peroxidase; 4 days, by eosinophil peroxidase activity)","effect on serum cholesterol (in words) (serum cholesterol; OVX rats, 4 days, EE2 at 0.1 mg/Kg/day)","effect on uterine weight (in words) (uterus; OVX rats, oral, 4 days, EE2 at 0.1 mg/Kg/day)",effect on bone loss / tibia density (in words) (tibia),Uterine EPO (Vmax) (eosinophil peroxidase; 0.01 mg/kg),Serum Cholesterol (% dec. OVX) (serum cholesterol; 1 mg/kg),Serum Cholesterol (% dec. OVX) (serum cholesterol; 10 mg/kg) [%],"change in vivo at 0.01 mg/kg (uterus; Rattus norvegicus, po, 96 h, 0.01 mg/kg, daily for 4 days, increase vs OVX control, read-out: Uterine Weight (% inc. OVX)) [%]"
O=C(c1ccc(OCCN2C(=O)CCC2=O)cc1)c1c(-c2ccc(O)cc2)sc2cc(O)ccc12 [Compound 13],> 1000,1.9,1.7,2.5,22.2,7.2,-4,,,,,,,,
O=C(c1ccc(OCCNC(=O)C2CCCCC2)cc1)c1c(-c2ccc(O)cc2)sc2cc(O)ccc12 [Compound 21],,3.1,2.6,2.4,-5.5,-11.5,8.6,,,,,,,,
CC(C#N)Oc1ccc(C(=O)c2c(-c3ccc(O)cc3)sc3cc(O)ccc23)cc1 (stereo not drawn) [Compound 16],0.02,2.3,3.9,,0.7,27.4,99.2,,,,,,,,
O=C(c1ccc(OCCN2CCCC2=O)cc1)c1c(-c2ccc(O)cc2)sc2cc(O)ccc12 [Compound 6],,3.6,1.4,3.7,-9,15.4,40.3,,,,,,,,
O=C(NCCOc1ccc(C(=O)c2c(-c3ccc(O)cc3)sc3cc(O)ccc23)cc1)c1ccccc1 [Compound 18],500,3.2,3.6,3.6,16.1,25.7,12.6,,,,,,,,
"C#C[C@]1(O)CC[C@H]2[C@@H]3CCc4cc(O)ccc4[C@H]3CC[C@@]21C [ethynyl estradiol, 17α-Ethynyl estradiol, reference compound]",,120.0,,,235,,,"caused a substantial, expected increase in eosinophil infiltration",caused a decrease in serum cholesterol,substantially greater than the uterine weight of ovariectomized test animals,prevented this loss,,,,
CN(C)C(=O)COc1ccc(C(=O)c2c(-c3ccc(O)cc3)sc3cc(O)ccc23)cc1 [Compound 12],,3.7,6.7,122.3,-7.7,15.4,60.7,,,,,,,,
O=C(NCCOc1ccc(C(=O)c2c(-c3ccc(O)cc3)sc3cc(O)ccc23)cc1)NC1CCCCC1 [Compound 20],0.1,3.0,2.5,2.9,-29.9,-27.4,-32.7,,,,,,,,
CC(=O)NCCOc1ccc(C(=O)c2c(-c3ccc(O)cc3)sc3cc(O)ccc23)cc1 [Compound 26],,1.3,0.7,,-17.5,-28.8,25.8,,,,,,,,

# Further lines, with some results ahead:
IC50 [1] [nM],Structure (SMILES),Uterine EPO (Vmax) (eosinophil peroxidase; 0.1 mg/kg),Uterine EPO (Vmax) (eosinophil peroxidase; 1 mg/kg),Uterine EPO (Vmax) (eosinophil peroxidase; 10 mg/kg),change in vivo at 0.1 mg/kg (uterus; [2]) [%],change in vivo at 1 mg/kg (uterus; [2]) [%],change in vivo at 10 mg/kg (uterus; [2]) [%],"eosinophil infiltration into the uterus (in words) (eosinophil peroxidase; 4 days, by eosinophil peroxidase activity)","effect on serum cholesterol (in words) (serum cholesterol; OVX rats, 4 days, EE2 at 0.1 mg/Kg/day)","effect on uterine weight (in words) (uterus; OVX rats, oral, 4 days, EE2 at 0.1 mg/Kg/day)",effect on bone loss / tibia density (in words) (tibia),Uterine EPO (Vmax) (eosinophil peroxidase; 0.01 mg/kg),Serum Cholesterol (% dec. OVX) (serum cholesterol; 1 mg/kg),Serum Cholesterol (% dec. OVX) (serum cholesterol; 10 mg/kg) [%],"change in vivo at 0.01 mg/kg (uterus; Rattus norvegicus, po, 96 h, 0.01 mg/kg, daily for 4 days, increase vs OVX control, read-out: Uterine Weight (% inc. OVX)) [%]"
0.01,CC(C)(C)C(=O)N1CCCCC1COc1ccc(C(=O)c2c(-c3ccc(O)cc3)sc3cc(O)ccc23)cc1 (stereo not drawn) [Compound 22],3.5,20.0,69.5,1.9,19.6,46.9,,,,,,,,
0.05,N#CCOc1ccc(C(=O)c2c(-c3ccc(O)cc3)sc3cc(O)ccc23)cc1 [Compound 14],3.3,2.4,145.8,18.8,14.6,125,,,,,,,,
10,O=C(c1ccc(OCC(=O)N2CCCCC2)cc1)c1c(-c2ccc(O)cc2)sc2cc(O)ccc12 [Compound 9],2.8,3.6,32,-10,6.5,51.7,,,,,,,,
50,CCCCN(C)C(=O)COc1ccc(C(=O)c2c(-c3ccc(O)cc3)sc3cc(O)ccc23)cc1 [Compound 10],4.3,3.1,17.0,1.5,-6.7,38,,,,,,,,
600,O=C(c1ccc(OCCN2CCCCC2=O)cc1)c1c(-c2ccc(O)cc2)sc2cc(O)ccc12 [Compound 3],8.0,7.8,8.9,13.3,17.8,57.6,,,,,,,,
0.1,CC(=O)N(CCOc1ccc(C(=O)c2c(-c3ccc(O)cc3)sc3cc(O)ccc23)cc1)C1CCCCC1 [Compound 19],5.4,3.7,29.3,7,-25.5,47,,,,,,,,
> 1000,COc1ccc(-c2sc3cc(OC)ccc3c2C(=O)c2ccc(OCC(=O)N3CCCCC3)cc2)cc1 [Compound 7],5.2,3.7,4.7,-0.5,-16.2,8.4,,,,,,,,
10,O=C(c1ccc(OCC(=O)N2CCCC2)cc1)c1c(-c2ccc(O)cc2)sc2cc(O)ccc12 [Compound 8],,,,,,,,,,,3.5,69.6% and 39.4%,64.5,-22.9
4,CC(C)(C)C(=O)N1CCC(Oc2ccc(C(=O)c3c(-c4ccc(O)cc4)sc4cc(O)ccc34)cc2)CC1 [Compound 23],1.6,3.8,6.7,-4.3,0.8,22.3,,,,,,,,
